Test: in vitro
Conditions: human, hela cells, % viability

SMILES	viability at 28.5 h, 10 µM [%]
COCC(=O)N1CCc2sccc2C1c1ccc(NCc2ccc(F)cc2)cc1 (stereo not drawn) [CBK286445]	89.7
COCC(=O)N1CCc2sccc2C1c1ccc(NCc2ccc(C)o2)cc1 (stereo not drawn) [CBK286447]	96.3
CC(O)CN(Cc1ccc(-c2ccccc2)cc1)Cc1ccc2c(c1)OCO2 (stereo not drawn) [CBK286450]	94.1
CCOc1ccc(CNc2ccc(C3c4ccsc4CCN3C(C)=O)cc2)cc1 (stereo not drawn) [CBK286451]	96.3
CCOc1ccc(CNc2ccc(C3c4ccsc4CCN3C(=O)COC)cc2)cc1 (stereo not drawn) [CBK286453]	85.3
CC1Cc2cc(C(O)CN3CCC4CCCCC4C3)ccc2N1S(C)(=O)=O (stereo not drawn) [CBK286456]	116
CC(=O)N1CCCc2cc(C(O)CN3CCN(c4cccc(C)c4)CC3)ccc21 (stereo not drawn) [CBK286457]	93.1
COCC(=O)N1CCc2sccc2C1c1ccc(NCc2ccc(OC)cc2)cc1 (stereo not drawn) [CBK286458]	85.1
CCOc1ccccc1CNc1ccc(C2c3ccsc3CCN2C(C)=O)cc1 (stereo not drawn) [CBK286459]	104
Nc1ncc(CN(Cc2ccco2)CC(O)Cn2c3ccccc3c3ccccc32)cn1 (stereo not drawn) [CBK286462]	88.6
O=c1[nH]c2c(cc1CNc1cccc(O)c1)c(-c1cccc(F)c1)nn2-c1ccccc1 [CBK286463]	93
COc1ccc(C(=O)Nc2ccc(C3c4ccsc4CCN3C(C)=O)cc2)cc1 (stereo not drawn) [CBK286465]	85
COCC(=O)N1CCc2sccc2C1c1ccc(NC(=O)c2cccc(F)c2)cc1 (stereo not drawn) [CBK286468]	102
COCC(=O)N1CCc2sccc2C1c1ccc(NC(=O)c2ccccc2F)cc1 (stereo not drawn) [CBK286469]	87.5
COc1ccc(-c2cccc(CN(Cc3ccc4c(c3)OCO4)CC(C)O)c2)cc1 (stereo not drawn) [CBK286472]	107
CCOc1cc2c(cc1CN(Cc1ccc3c(c1)OCO3)CC(C)O)CCC2 (stereo not drawn) [CBK286474]	87.2
CCC(=O)N1CCCc2cc(C(O)CN3CCN(c4cccc(OC)c4)CC3)ccc21 (stereo not drawn) [CBK286476]	114
COc1ccc([C@H]2CN(Cc3ccccc3)C[C@@H]2NC(=O)CCc2ccco2)cc1 [CBK286477]	87.6
COc1ccc([C@H]2CN(Cc3ccccc3)C[C@@H]2NC(=O)c2ccco2)cc1OC [CBK286478]	88.4
COc1ccc(OC)c([C@@H]2CN(Cc3ccccc3)C[C@H]2NC(=O)c2ccco2)c1 [CBK286479]	96.3
CCC(=O)N1CCCc2cc(C(O)CN3CCN(c4ccc(F)cc4)CC3)ccc21 (stereo not drawn) [CBK286480]	95.3
CC(=O)N1CCCc2cc(C(O)CN3CCC(O)(c4ccc(F)cc4)CC3)ccc21 (stereo not drawn) [CBK286481]	88.1

SMILES	viability at 28.5 h, 10 µM [%]
COc1ccccc1C1(O)CCN(CC(O)c2ccc3c(c2)OCCO3)CC1 (stereo not drawn) [CBK286482]	90.1
COc1ccc(CN(Cc2ccccc2OC)[C@@H]2COC[C@H]2c2ccc(F)cc2)cc1 [CBK286484]	105
COc1ccc(CN(Cc2ccsc2)[C@@H]2COC[C@H]2c2ccc(F)cc2)cc1 [CBK286485]	112
CN(Cc1ccccc1)C(=O)c1c[nH]nc1C1CCCN(CC2CCCCC2)C1 (stereo not drawn) [CBK286489]	94.4
CN(Cc1ccccc1)C(=O)c1c[nH]nc1C1CCCN(Cc2cccc(Cl)c2)C1 (stereo not drawn) [CBK286490]	91
CN(C(=O)c1c[nH]nc1C1CCCN(Cc2cc3ccccc3o2)C1)C1CCCCC1 (stereo not drawn) [CBK286492]	102
O=C(CC1CCN(Cc2cccc(C(F)(F)F)c2)CC1)N(Cc1ccccn1)C1CC1 [CBK286494]	101
Cc1cc(C)nc(Nc2cccc(C3CCCN3C(=O)CCOc3ccccc3C)n2)n1 (stereo not drawn) [CBK286496]	90.7
Cc1nc(C2(O)CCCN(C3CCCCC3)CC2)sc1COc1ccc(F)c(F)c1 (stereo not drawn) [CBK286499]	86.4
COc1ccc(CC(=O)N2CCC(c3cccc(Cc4cccc(F)c4)n3)CC2)cc1 [CBK286504]	100
O=C(CCc1ccc(F)cc1)N1CCCC(c2cccc(Cc3ccccc3F)n2)C1 (stereo not drawn) [CBK286512]	91.2
COc1ccccc1-c1ccc(CC2(C(=O)NC3CCCCC3)CCOCC2)cc1 [CBK286515]	98.4
COc1ccccc1-c1ccc(CC2(C(=O)NCC3CCCCC3)CCOCC2)cc1 [CBK286519]	98.5
COc1ccccc1-c1ccc(CC2(C(=O)NCCc3ccc(F)cc3)CCOCC2)cc1 [CBK286520]	94.4
CCC(CO)NC(=O)C1(Cc2ccc(-c3cc(C)cc(C)c3)cc2)CCOCC1 (stereo not drawn) [CBK286522]	90.8
Cc1cc(C)cc(-c2ccc(CC3(C(=O)NCC4CCCOC4)CCOCC3)cc2)c1 (stereo not drawn) [CBK286524]	96.5
CC(C)C(CO)NC(=O)C1(Cc2ccc(-c3ccc(F)c(F)c3)cc2)CCOCC1 (stereo not drawn) [CBK286525]	87.7
COc1ccccc1-c1ccc(NC(=O)CCc2ccc3c(c2)n(C)c(=O)n3C)cc1 [CBK286527]	93.1
Cc1ccc(C2CCCN2C(=O)c2cccn(CC(=O)Nc3ccc(F)cc3)c2=O)cc1C (stereo not drawn) [CBK286528]	90.1
O=C(Cc1ccccc1)N(Cc1ccco1)C1CCN(c2ccc3c(c2)OCCO3)CC1 [CBK286529]	106
N=c1n(CC(=O)O)c2ccccc2n1Cc1ccccc1 [CBK286531]	108
CC(C)C(C(=O)O)N1C(=O)C2C3C=CC(C3)C2C1=O (stereo not drawn) [CBK286535]	84

SMILES	viability at 28.5 h, 10 µM [%]
CCCCC(C(=O)O)N1C(=O)C2CC=C(Cl)CC2C1=O (stereo not drawn) [CBK286536]	91.4
Cn1c(=O)n(C)c2cc(CNCc3ccc(C(=O)O)cc3)ccc21 [CBK286538]	95.8
O=C(O)CC1C(=O)NCCN1CC(c1ccccc1)c1ccccc1 (stereo not drawn) [CBK286539]	77.5
O=C(O)CCSc1nnc(-c2cccc(Br)c2)o1 [CBK286540]	82.8
Nc1cccc(S(=O)(=O)N2CCC(C(=O)O)CC2)c1 [CBK286541]	88.2
O=C(O)C1Nc2ccc(Oc3ccccc3)cc2C2C=CCC12 (stereo not drawn) [CBK286542]	80.8
O=C(O)c1cn(CCN2C(=O)c3ccccc3C2=O)nn1 [CBK286543]	91
CC(C)C(=O)Nc1ccc2c(c1)C(=O)N(CCC(=O)O)C2=O [CBK286544]	86.1
Cc1n[nH]c2c1C(c1ccc(C(=O)O)cc1)C1=C(COC1=O)N2 (stereo not drawn) [CBK286546]	94.7
O=C(O)/C=C/c1ccc(CNS(=O)(=O)c2ccccc2)o1 [CBK286549]	86
O=C(O)CNC(=O)CNC(=O)Cn1c(-c2ccccc2)cc2ccccc21 [CBK286550]	89.1
O=C(O)CN1C(=O)C(=O)/C(=C(O)\C=C\c2ccccc2)C1c1ccccc1 (stereo not drawn) [CBK286551]	86.8
CSCCC(NC(=O)C1CCC(C)CC1)C(=O)O (stereo not drawn) [CBK286552]	87.5
O=C(O)CCNC(=O)c1ccc(C#CC2(O)CCCCC2)cc1 [CBK286554]	93.2
Cn1cc(C2c3ccccc3C(=O)N2CC(=O)O)c2ccccc21 (stereo not drawn) [CBK286555]	90.2
O=C(O)c1ccccc1NC1CC(=O)N(C2CCCCC2)C1 (stereo not drawn) [CBK286556]	91.3
Cn1nc(CC(=O)Nc2ccccc2C(=O)O)c2ccccc2c1=O [CBK286558]	88.9
Cc1nn(-c2ccc(F)cc2)c2c1C(c1ccc(C(=O)O)cc1)CC(=O)N2 (stereo not drawn) [CBK286561]	101
O=C(O)/C=C\C(=O)N(C1CCCCC1)C1CCCCC1 [CBK286562]	92
Cc1ccc(NC(=O)/C=C/C(=O)O)c(NC(=O)c2ccccc2)c1 [CBK286563]	97.3
CC1=C(C)CC(C(=O)Nc2ccc(C(=O)NCc3cccnc3)cc2)C(C(=O)O)C1 (stereo not drawn) [CBK286567]	78.8
Cc1ccc(Oc2ccc(C(=O)NCC(=O)O)cc2)cc1C [CBK286570]	84.5

SMILES	viability at 28.5 h, 10 µM [%]
Cc1cc2oc(=O)cc(C)c2cc1NC(=O)c1ccccc1C(=O)O [CBK286572]	92.1
NC(=O)C1(N2CCCCC2)CCN(C(=O)CCCC(=O)O)CC1 [CBK286575]	84.2
CC(C(=O)O)N1C(=O)c2ccccc2C1c1c[nH]c2ccccc12 (stereo not drawn) [CBK286576]	106
CC1CN(C(=O)c2ccccc2-c2ccccc2C(=O)O)CC(C)O1 (stereo not drawn) [CBK286577]	87.7
N#Cc1ccc(Oc2ccc(C(=O)NCC(=O)O)cc2)cc1 [CBK286579]	90.1
O=C(O)CNC(=O)CCS(=O)(=O)c1ccc(F)cc1 [CBK286580]	86.1
CC(C)(CN1C(=O)c2ccccc2C1=O)C(O)C(=O)O (stereo not drawn) [CBK286582]	82.3
Cc1ccc(S(=O)(=O)N2c3ccc(C(=O)O)cc3CC2C)cc1 (stereo not drawn) [CBK286584]	82.6
COc1ccc(NC(=O)CCC(=O)N2CCC(C(=O)O)CC2)cc1 [CBK286588]	100
CC(C)C[C@H](NC(=O)N1CC(=O)Nc2ccccc21)C(=O)O [CBK286589]	94.8
Cc1c(C(=O)O)sc2c1c(=O)n(Cc1ccccc1)c(=O)n2CCN(C)C [CBK286590]	95.3
O=C(O)C1Cc2ccccc2C(=O)N1CCc1ccccc1 (stereo not drawn) [CBK286592]	87.4
O=C(O)C1CCCCC1C(=O)N1CCc2ccccc2C1 (stereo not drawn) [CBK286594]	85
O=C(O)c1cc(S(=O)(=O)N2CCCCC2)ccc1O [CBK286595]	89.6
CCCCN(Cc1ccccc1)C(=O)[C@H]1CCCC[C@H]1C(=O)O [CBK286596]	85.3
CC1(C)CC(=O)C2=C(C1)Nc1ccccc1N(CC(=O)O)C2c1cccs1 (stereo not drawn) [CBK286597]	83.6
O=C(O)CC(CNC(=O)Cc1c[nH]c2ccccc12)c1ccc(Cl)cc1 (stereo not drawn) [CBK286598]	91.7
COCc1cc(C)nc2c1C(=O)NC(c1ccccc1C(=O)O)N2Cc1ccccc1 (stereo not drawn) [CBK286599]	92.3
CC(=O)Nc1ccc(CC(C(=O)O)c2ccccc2)cc1 (stereo not drawn) [CBK286600]	98.8
O=C(O)c1ccccc1-c1ccccc1C(=O)Nc1ccc(O)cc1 [CBK286602]	85.1
O=C(O)C1CC=CCC1C(=O)c1c[nH]c2ccccc12 (stereo not drawn) [CBK286603]	90.7

Source: paper PMC12040169 (PLOS Biology, 2025)
